Laboratory results taken from patent US4487924A, “2'-N-β-Lysyl) aminoglycosides” (Kowa Company, Ltd., priority 1982, dated 1984).
≈ marks a conversion by molar mass, not a printed value. Read-outs that look alike come from different tables or passages of the source.

Tests used:
Experiment in all cases: Antibiotic activity (MIC), Table 1
Assay type in all cases: cell-based
[1] = system: P. aeruginosa TI 13 (APH(3')-I)
E. coli R176 (AAC(3)-II) = system: E. coli R176 (AAC(3)-II)
S. aureus 209P JC-1 = system: S. aureus 209P JC-1
B. subtilis ATCC 6633 = system: B. subtilis ATCC 6633
E. cloacae IID 977 = system: E. cloacae IID 977
E. coli ML 1410 = system: E. coli ML 1410
E. coli JR 88 (AAC(3)-I) = system: E. coli JR 88 (AAC(3)-I)
P. putida IID 5121 = system: P. putida IID 5121
[2] = system: P. aeruginosa 99 (AAC(3)-I)
S. faecalis Imanari = system: S. faecalis Imanari
P. inconstans 93 = system: P. inconstans 93
P. aeruginosa NCTC 10490 = system: P. aeruginosa NCTC 10490
[3] = system: P. aeruginosa GN315 (AAC(6')-IV)
E. coli NIHJ JC-2 = system: E. coli NIHJ JC-2
P. cepacia 11D 1340 = system: P. cepacia 11D 1340
[4] = system: P. aeruginosa RST-1 (AAC(3)-III)
P. maltophilia IID 1275 = system: P. maltophilia IID 1275
P. vulgaris IID 874 = system: P. vulgaris IID 874
[5] = system: P. aerugionosa TK-157 (APH(3')-II)
S. marcescens NHL = system: S. marcescens NHL
[6] = system: P. inconstans GN1554 (AAC(2'))
[7] = system: K. pneumoniae 4687 (AAD(2"))
K. pneumoniae PCI 602 = system: K. pneumoniae PCI 602
[8] = system: E. coli ML 1410 R81 (APH(3')-I)
[9] = system: E. coli ML 1410 R102 (AAD(2"))
[10] = system: E. coli ML 1410 R83 (APH(3')-II)
[11] = system: E. coli ML 1410 R82 (AAD(3"))
[12] = Escherichia coli, read-out: MIC
[13] = Bacillus subtilis, ATCC6633, B. subtilis ATCC 6633, read-out: MIC
[14] = Pseudomonas aeruginosa, read-out: MIC
[15] = Pseudomonas aeruginosa, GN315, P. aeruginosa GN315 (AAC(6')-IV), read-out: MIC
[16] = Burkholderia cepacia, 11D1340, read-out: MIC

| SMILES | MIC (B. subtilis ATCC 6633; [13]) [µg/mL] | MIC (E. coli JR 88 (AAC(3)-I); [12]) [µg/mL] | MIC [2, 14] [µg/mL] | MIC [3, 15] [µg/mL] | MIC (P. cepacia 11D 1340; [16]) [µg/mL] | MIC [4, 14] [µg/mL] | MIC [1] [µg/mL] | MIC (E. coli R176 (AAC(3)-II)) [µg/mL] | MIC (S. aureus 209P JC-1) [µg/mL] | MIC (E. cloacae IID 977; E. cloacae IID 977) [µg/mL] | MIC (E. coli ML 1410; E. coli ML 1410) [µg/mL] | MIC (P. putida IID 5121; P. putida IID 5121) [µg/mL] | MIC (S. faecalis Imanari) [µg/mL] | MIC (P. inconstans 93; P. inconstans 93) [µg/mL] | MIC (P. aeruginosa NCTC 10490; P. aeruginosa NCTC 10490) [µg/mL] | MIC (E. coli NIHJ JC-2; E. coli NIHJ JC-2) [µg/mL] | MIC (P. maltophilia IID 1275; P. maltophilia IID 1275) [µg/mL] | MIC [9] [µg/mL] | MIC (P. vulgaris IID 874; P. vulgaris IID 874) [µg/mL] | MIC [5] [µg/mL] | further results |
| --- | --- | --- | --- | --- | --- | --- | --- | --- | --- | --- | --- | --- | --- | --- | --- | --- | --- | --- | --- | --- | --- |
| CNCC1CCC(NC(=O)C[C@@H](N)CCCN)C(OC2C(N)CC(OC)C(NC)C2O)O1 (stereo partly drawn) [2'-N-β-Lysyl KA-7038VI, 2'-N-(L-β-lysyl)-KA-7038VI] | 3.13 (≈ 6.8 µM) | 3.13 (≈ 6.8 µM) | > 100 | 100 (≈ 217 µM) | > 100 | > 100 | – | – | – | – | – | – | – | – | – | – | – | – | – | – | MIC ([1]; Pseudomonas aeruginosa): 25 µg/mL (≈ 54.3 µM); MIC (E. coli R176 (AAC(3)-II); [12]): 1.56 µg/mL (≈ 3.39 µM); MIC (S. aureus 209P JC-1; Staphylococcus aureus, 209P, read-out: MIC): 0.78 µg/mL (≈ 1.69 µM); MIC (E. cloacae IID 977; Enterobacter cloacae, IID977, E. cloacae IID 977, read-out: MIC): 6.25 µg/mL (≈ 13.6 µM); MIC (E. coli ML 1410; Escherichia coli, ML1410, E. coli ML 1410, read-out: MIC): 1.56 µg/mL (≈ 3.39 µM); MIC (P. putida IID 5121; Pseudomonas putida, IID5121, P. putida IID 5121, read-out: MIC): 12.5 µg/mL (≈ 27.1 µM); MIC (S. faecalis Imanari; Enterococcus faecalis, read-out: MIC): 1.56 µg/mL (≈ 3.39 µM); MIC (P. inconstans 93; Providencia alcalifaciens, 93, P. inconstans 93, read-out: MIC): 0.78 µg/mL (≈ 1.69 µM); MIC (P. aeruginosa NCTC 10490; Pseudomonas aeruginosa, NCTC10490, P. aeruginosa NCTC 10490, read-out: MIC): 12.5 µg/mL (≈ 27.1 µM); MIC (E. coli NIHJ JC-2; Escherichia coli, NIHJJC2, E. coli NIHJ JC-2, read-out: MIC): 1.56 µg/mL (≈ 3.39 µM); MIC (P. maltophilia IID 1275; Stenotrophomonas maltophilia, IID1275, P. maltophilia IID 1275, read-out: MIC): 1.56 µg/mL (≈ 3.39 µM); MIC (P. vulgaris IID 874; Proteus vulgaris, IID874, P. vulgaris IID 874, read-out: MIC): 25 µg/mL (≈ 54.3 µM); MIC ([5]; read-out: MIC): 25 µg/mL (≈ 54.3 µM); MIC (S. marcescens NHL; Serratia marcescens, read-out: MIC): 0.78 µg/mL (≈ 1.69 µM); MIC ([6]; Providencia alcalifaciens, GN1554, P. inconstans GN1554 (AAC(2')), read-out: MIC): 0.78 µg/mL (≈ 1.69 µM); MIC ([7]; Klebsiella pneumoniae, read-out: MIC): 3.13 µg/mL (≈ 6.8 µM); MIC (K. pneumoniae PCI 602; Klebsiella pneumoniae, PCI602, K. pneumoniae PCI 602, read-out: MIC): 0.78 µg/mL (≈ 1.69 µM) |
| CNC1C(OC)CC(N)C(OC2OC(C(C)N)CCC2N)C1O (centres unmarked) [KA-6606II, reference compound] | – | – | – | – | – | – | > 100 | > 100 | 25 (≈ 75.2 µM) | > 100 | > 100 | > 100 | 100 (≈ 301 µM) | > 100 | > 100 | 50 (≈ 150 µM) | > 100 | > 100 | 100 (≈ 301 µM) | > 100 | MIC (B. subtilis ATCC 6633; B. subtilis ATCC 6633): 6.25 µg/mL (≈ 18.8 µM); MIC [8]: > 100 µg/mL; MIC (E. coli JR 88 (AAC(3)-I)): > 100 µg/mL; MIC [2]: > 100 µg/mL; MIC ([3]; P. aeruginosa GN315 (AAC(6')-IV)): > 100 µg/mL; MIC (P. cepacia 11D 1340): > 100 µg/mL; MIC [4]: > 100 µg/mL; MIC [10]: > 100 µg/mL; MIC [11]: > 100 µg/mL; MIC (S. marcescens NHL): 100 µg/mL (≈ 301 µM); MIC ([6]; P. inconstans GN1554 (AAC(2'))): > 100 µg/mL; MIC [7]: > 100 µg/mL; MIC (K. pneumoniae PCI 602; K. pneumoniae PCI 602): > 100 µg/mL |
| CNC1C(OC)CC(N)C(OC2OC(C(C)N)CCC2N)C1O (centres unmarked) [KA-6606VIII, reference compound] | 3.13 (≈ 9.42 µM) | 50 (≈ 150 µM) | > 100 | 100 (≈ 301 µM) | > 100 | 100 (≈ 301 µM) | 25 (≈ 75.2 µM) | 3.13 (≈ 9.42 µM) | 0.78 (≈ 2.35 µM) | 12.5 (≈ 37.6 µM) | 3.13 (≈ 9.42 µM) | 12.5 (≈ 37.6 µM) | 3.13 (≈ 9.42 µM) | 1.56 (≈ 4.69 µM) | 12.5 (≈ 37.6 µM) | 3.13 (≈ 9.42 µM) | 1.56 (≈ 4.69 µM) | 0.78 (≈ 2.35 µM) | 12.5 (≈ 37.6 µM) | 25 (≈ 75.2 µM) | MIC (S. marcescens NHL): 1.56 µg/mL (≈ 4.69 µM); MIC ([6]; P. inconstans GN1554 (AAC(2'))): 1.56 µg/mL (≈ 4.69 µM); MIC [7]: 6.25 µg/mL (≈ 18.8 µM); MIC (K. pneumoniae PCI 602; K. pneumoniae PCI 602): 0.78 µg/mL (≈ 2.35 µM) |
